Test results from US8334286B2, “Substituted pyrrolo[1,2-A] pyrazines, compositions containing these, processes of making these, and uses thereof” (Neurotune AG, priority 2008, dated 2012).
Values belong to the compound of their own block, whether it stands above or below them.

What was measured:
[1] = tested on: paclitaxel-induced hyperalgesia; experiment: Paclitaxel-induced hyperalgesia in the rat (paw-pressure test); format: in vivo; details: PCT-treated rats, 3 mg/kg i.v., mean ± S.E.M.; for Mechanical threshold (g), After Treatment 15 min: 15 min after treatment; for Mechanical threshold (g), After Treatment 30 min: 30 min after treatment; for Mechanical threshold (g), After Treatment 45 min: 45 min after treatment
Protocol: In all methods, paw mechanical sensitivity was determined using either the paw pressure test or the incapacitance test. The paw pressure test utilizes a Randall & Selitto apparatus, exerting a force that increases at constant rate (32 g/s). The stimulus at which rats withdrawn the paw was evaluated before and at different times after treatment. Results represent the mean of mechanical thresholds expressed as grams. To avoid any possible damage to the animal paw the maximum applied force was fixed at 240 g. Peripheral neuropathy is induced by repeated administration of vincristine, paclitaxel or oxaliplatin to adult male Sprague-Dawley rats (150-200 g, supplier Harlan). The following protocols were used respectively: • Vincristine: the drug was injected by intravenous route at the dose of 150 μg/kg. The treatment was performed every 2 days, for 5 times, until a cumulative dose of 750 μg/kg was reached. Paw pressure test was performed 4 days after the last injection (Marchand F. et al. 2003, Brain Res. 980:117-120). • Paclitaxel: paclitaxel (PCT) neuropathy was induced by intraperitoneal administration of 0.5 mg/kg once a day, on days 1, 3, 5 and 8. Cumulative paclitaxel dose was 2 mg/kg. The pharmacological test was performed 14-18 days after the last paclitaxel injection (Polomano R. C. et al. 2001, Pain 94:293-304). • Oxaliplatin: 2.4 mg/kg were injected by intraperitoneal route for 5 consecutive days followed by 2 days suspension (one cicle). A total of 3 cycles was performed, reaching a cumulative dose of 36 mg/kg (Cavaletti G. 2001, Eur. J. Cancer 37:2457-2463). The test was performed 48 h after the last oxaliplatin injection. 2. Osteoarthritic Pain

MIA-induced hyperalgesia [2] = experiment: MIA-induced hyperalgesia in the rat (paw-pressure test), osteoarthritic pain; format: in vivo; details: MIA-treated rats, mean ± S.E.M.; for Mechanical threshold (g), After Treatment 15 min / Mechanical threshold (g), After Treatment 30 min / Mechanical threshold (g), After Treatment 45 min: 3 mg/kg i.v.; for Mechanical threshold (g), After Treatment 15 min: 15 min after treatment; for Mechanical threshold (g), After Treatment 30 min: 30 min after treatment; for Mechanical threshold (g), After Treatment 45 min: 45 min after treatment; for Mechanical threshold (g), Before Treatment basal: group 3 mg/kg i.v.
Protocol: In all methods, paw mechanical sensitivity was determined using either the paw pressure test or the incapacitance test. The paw pressure test utilizes a Randall & Selitto apparatus, exerting a force that increases at constant rate (32 g/s). The stimulus at which rats withdrawn the paw was evaluated before and at different times after treatment. Results represent the mean of mechanical thresholds expressed as grams. To avoid any possible damage to the animal paw the maximum applied force was fixed at 240 g. Osteoarthritis was induced by a single administration of 2 mg (in a volume of 25 μl) of monosodium iodoacetate (MIA) into the left knee joint of anaesthetized rats (male adult Sprague Dawley rats, 150-200 g, supplier Harlan) (Fernihough J. 2004, Pain 112:83-93). This treatment induces the progressive degeneration of the joint and the development of hyperalgesia, mimicking at the histological and behavioral levels what observed in humans. Pharmacological test was performed 7 days after treatment.

MIA-induced hyperalgesia [3] = experiment: MIA-induced hyperalgesia in the rat (incapacitance test), osteoarthritic pain; format: in vivo; details: MIA-treated rats, grams of the right paw, mean ± S.E.M.
Protocol: In all methods, paw mechanical sensitivity was determined using either the paw pressure test or the incapacitance test. […] Osteoarthritis was induced by a single administration of 2 mg (in a volume of 25 μl) of monosodium iodoacetate (MIA) into the left knee joint of anaesthetized rats (male adult Sprague Dawley rats, 150-200 g, supplier Harlan) (Fernihough J. 2004, Pain 112:83-93). This treatment induces the progressive degeneration of the joint and the development of hyperalgesia, mimicking at the histological and behavioral levels what observed in humans. Pharmacological test was performed 7 days after treatment.

[4] = 3 mg/kg i.v., 15 min after treatment
[5] = 3 mg/kg i.v., 30 min after treatment
[6] = 3 mg/kg i.v., 45 min after treatment
[7] = before treatment (basal), group 3 mg/kg i.v.

melting point: 157 to 158 °C
SMILES: O=C1CC[C@@H]2CN(S(=O)(=O)c3ccccc3C(F)(F)F)CCN12 [Example 8, (R)-(+)-2-(2-(trifluoromethyl)phenylsulfonyl) hexahydropyrrolo [1,2-a]pyrazin-6(7H)-one]
Mechanical threshold (g), After Treatment 15 min [1]: 42.2 ± 3.0 g | Mechanical threshold (g), After Treatment 30 min [1]: 39.3 ± 3.2 g | Mechanical threshold (g), After Treatment 45 min [1]: 37.5 ± 3.2 g | Mechanical threshold (g), After Treatment 15 min (MIA-induced hyperalgesia [2]): 59.4 ± 1.6 g | Mechanical threshold (g), After Treatment 30 min (MIA-induced hyperalgesia [2]): 63.8 ± 2.6 g | Mechanical threshold (g), After Treatment 45 min (MIA-induced hyperalgesia [2]): 50.2 ± 3.7 g | Mechanical threshold (g), Before Treatment basal (MIA-induced hyperalgesia [2]): 22.6 ± 2.0 g | Weight borne on right hind paw (MIA-induced hyperalgesia [3]; [4]): 119.0 ± 7.5 g | Weight borne on right hind paw (MIA-induced hyperalgesia [3]; [5]): 113.5 ± 6.6 g | Weight borne on right hind paw (MIA-induced hyperalgesia [3]; [6]): 72.9 ± 6.3 g | Weight borne on right hind paw (MIA-induced hyperalgesia [3]; [7]): 40.4 ± 8.2 g

melting point: 179 to 180 °C
SMILES: O=C1CC[C@@H]2CN(S(=O)(=O)c3cccc(F)c3)CCN12 [Example 4, (R)-(+)2-(3-fluorophenylsulfonyl)hexahydro pyrrolo[1,2-a]pyrazin-6(7H)-one]
Mechanical threshold (g), After Treatment 15 min [1]: 51.1 ± 2.4 g | Mechanical threshold (g), After Treatment 30 min [1]: 55.8 ± 2.4 g | Mechanical threshold (g), After Treatment 45 min [1]: 47.3 ± 2.9 g | Mechanical threshold (g), After Treatment 15 min (MIA-induced hyperalgesia [2]): 41.4 ± 3.1 g | Mechanical threshold (g), After Treatment 30 min (MIA-induced hyperalgesia [2]): 53.0 ± 3.5 g | Mechanical threshold (g), After Treatment 45 min (MIA-induced hyperalgesia [2]): 42.6 ± 3.2 g | Mechanical threshold (g), Before Treatment basal (MIA-induced hyperalgesia [2]): 23.1 ± 2.5 g | Weight borne on right hind paw (MIA-induced hyperalgesia [3]; [4]): 90.1 ± 8.2 g | Weight borne on right hind paw (MIA-induced hyperalgesia [3]; [5]): 96.2 ± 7.5 g | Weight borne on right hind paw (MIA-induced hyperalgesia [3]; [6]): 72.5 ± 7.2 g | Weight borne on right hind paw (MIA-induced hyperalgesia [3]; [7]): 41.4 ± 5.8 g

melting point: 136 to 137 °C
SMILES: O=C1CC[C@@H]2CN(S(=O)(=O)c3ccccc3F)CCN12 [Example 3, (R)-(+)2-(2-fluorophenylsulfonyl)hexahydro pyrrolo[1,2-a]pyrazin-6(7H)-one]
Mechanical threshold (g), After Treatment 15 min [1]: 45.6 ± 3.9 g | Mechanical threshold (g), After Treatment 30 min [1]: 53.3 ± 2.7 g | Mechanical threshold (g), After Treatment 45 min [1]: 46.2 ± 3.3 g | Mechanical threshold (g), After Treatment 15 min (MIA-induced hyperalgesia [2]): 61.3 ± 3.0 g | Mechanical threshold (g), After Treatment 30 min (MIA-induced hyperalgesia [2]): 58.1 ± 3.7 g | Mechanical threshold (g), After Treatment 45 min (MIA-induced hyperalgesia [2]): 49.2 ± 4.1 g | Mechanical threshold (g), Before Treatment basal (MIA-induced hyperalgesia [2]): 21.9 ± 1.9 g | Weight borne on right hind paw (MIA-induced hyperalgesia [3]; [4]): 106.9 ± 7.3 g | Weight borne on right hind paw (MIA-induced hyperalgesia [3]; [5]): 112.1 ± 8.5 g | Weight borne on right hind paw (MIA-induced hyperalgesia [3]; [6]): 81.8 ± 6.6 g | Weight borne on right hind paw (MIA-induced hyperalgesia [3]; [7]): 41.8 ± 6.0 g
